# Results taken from ChEMBL document CHEMBL3885861, “Open TG-GATES”.
# Species on record: Rattus norvegicus
# Experiment: Open TG-GATES - Regimen: Daily Repeat
# Format: toxicity, organism-based, Sprague-Dawley
# Set-up: regimen Daily Repeat, gender Male, age 6 weeks
# Details: in vivo, po, 1000 mg/kg, route gavage, dose level High; for APTT / Bas / Eos / Fbg / Hb / Ht / Lym / MCH / MCHC / MCV / Mono / Neu / PT / Plat / RBC / Ret / WBC: tissue Blood; for KIDNEY_L / KIDNEY_R / KIDNEY_TOTAL: tissue Kidney; for LIVER: tissue Liver; for A/G / ALP / ALT / AST / BUN / CRE / Ca / Cl / DBIL / GLC / IP / K / LDH / Na / PL / RALB / TBIL / TC / TG / TP / gamma-GTP: tissue Plasma
smiles,measurement,setting,value
CN/C(=N/CCSCc1nc[nH]c1C)NC#N [CIMETIDINE],TERMINAL_BW,"72 h, time 3 day",228.7 g
same,APTT,"72 h, time 3 day",18.9 s
same,Bas,"72 h, time 3 day",0%
same,Eos,"72 h, time 3 day",1%
same,Fbg,"72 h, time 3 day",228.6 mg/dL
same,Hb,"72 h, time 3 day",13.1 g/dL
same,Ht,"72 h, time 3 day",38.7%
same,Lym,"72 h, time 3 day",80.8%
same,MCH,"72 h, time 3 day",21.1 pg
same,MCHC,"72 h, time 3 day",33.8%
same,MCV,"72 h, time 3 day",62.3 fL
same,Mono,"72 h, time 3 day",2.6%
same,Neu,"72 h, time 3 day",14.8%
same,PT,"72 h, time 3 day",12.7 s
same,Plat,"72 h, time 3 day",135 x10_4/uL
same,RBC,"72 h, time 3 day",620.4 x10_4/ul
same,Ret,"72 h, time 3 day",5.4%
same,WBC,"72 h, time 3 day",96.4 x10_2/uL
same,KIDNEY_L,"72 h, time 3 day",1 g
same,KIDNEY_R,"72 h, time 3 day",1 g
same,KIDNEY_TOTAL,"72 h, time 3 day",2 g
same,LIVER,"72 h, time 3 day",11.5 g
same,A/G,"72 h, time 3 day",1.6
same,ALP,"72 h, time 3 day",1004 IU/L
same,ALT,"72 h, time 3 day",40 IU/L
same,AST,"72 h, time 3 day",74 IU/L
same,BUN,"72 h, time 3 day",16.2 mg/dL
same,CRE,"72 h, time 3 day",0.4 mg/dL
same,Ca,"72 h, time 3 day",11 mg/dL
same,Cl,"72 h, time 3 day",102.8 meq/L
same,DBIL,"72 h, time 3 day",0.1 mg/dL
same,GLC,"72 h, time 3 day",201.6 mg/dL
same,IP,"72 h, time 3 day",7 mg/dL
same,K,"72 h, time 3 day",3.8 meq/L
same,LDH,"72 h, time 3 day",190.8 IU/L
same,Na,"72 h, time 3 day",140.8 meq/L
same,PL,"72 h, time 3 day",156.6 mg/dL
same,RALB,"72 h, time 3 day",3.4 g/dL
same,TBIL,"72 h, time 3 day",0.2 mg/dL
same,TC,"72 h, time 3 day",79.8 mg/dL
same,TG,"72 h, time 3 day",118.6 mg/dL
same,TP,"72 h, time 3 day",5.5 g/dL
same,gamma-GTP,"72 h, time 3 day",1.2 IU/L
same,TERMINAL_BW,"[…], time 7 day",263.6 g
same,TERMINAL_BW,"[…], time 14 day",302.5 g
same,TERMINAL_BW,"[…], time 28 day",396.8 g
same,APTT,"[…], time 7 day",16.9 s
same,Bas,"[…], time 7 day",0%
same,Eos,"[…], time 7 day",1%
same,Fbg,"[…], time 7 day",235.6 mg/dL
same,Hb,"[…], time 7 day",13.6 g/dL
same,Ht,"[…], time 7 day",40.7%
same,Lym,"[…], time 7 day",81%
same,MCH,"[…], time 7 day",21.1 pg
same,MCHC,"[…], time 7 day",33.5%
same,MCV,"[…], time 7 day",62.9 fL
same,Mono,"[…], time 7 day",2.6%
same,Neu,"[…], time 7 day",14.4%
same,PT,"[…], time 7 day",12.6 s
same,Plat,"[…], time 7 day",121.2 x10_4/uL
same,RBC,"[…], time 7 day",646.4 x10_4/ul
same,Ret,"[…], time 7 day",5%
same,WBC,"[…], time 7 day",94.8 x10_2/uL
same,APTT,"[…], time 14 day",20.1 s
same,Bas,"[…], time 14 day",0%
same,Eos,"[…], time 14 day",1%
same,Fbg,"[…], time 14 day",225.8 mg/dL
same,Hb,"[…], time 14 day",14.2 g/dL
same,Ht,"[…], time 14 day",43.3%
same,Lym,"[…], time 14 day",80.8%
same,MCH,"[…], time 14 day",19.5 pg
same,MCHC,"[…], time 14 day",32.6%
same,MCV,"[…], time 14 day",59.7 fL
same,Mono,"[…], time 14 day",2.2%
same,Neu,"[…], time 14 day",15.4%
same,PT,"[…], time 14 day",12.9 s
same,Plat,"[…], time 14 day",128 x10_4/uL
same,RBC,"[…], time 14 day",726.4 x10_4/ul
same,Ret,"[…], time 14 day",4.3%
same,WBC,"[…], time 14 day",110.4 x10_2/uL
same,APTT,"[…], time 28 day",19.4 s
same,Bas,"[…], time 28 day",0%
same,Eos,"[…], time 28 day",1.6%
same,Fbg,"[…], time 28 day",216.2 mg/dL
same,Hb,"[…], time 28 day",14.9 g/dL
same,Ht,"[…], time 28 day",43.2%
same,Lym,"[…], time 28 day",83.4%
same,MCH,"[…], time 28 day",19 pg
same,MCHC,"[…], time 28 day",34.4%
same,MCV,"[…], time 28 day",55.3 fL
same,Mono,"[…], time 28 day",2%
same,Neu,"[…], time 28 day",12.6%
same,PT,"[…], time 28 day",13.2 s
same,Plat,"[…], time 28 day",102.4 x10_4/uL
same,RBC,"[…], time 28 day",782 x10_4/ul
same,Ret,"[…], time 28 day",2.9%
same,WBC,"[…], time 28 day",177.7 x10_2/uL
same,KIDNEY_L,"[…], time 7 day",1.1 g
same,KIDNEY_R,"[…], time 7 day",1.1 g
same,KIDNEY_TOTAL,"[…], time 7 day",2.2 g
same,KIDNEY_L,"[…], time 14 day",1.2 g
same,KIDNEY_R,"[…], time 14 day",1.3 g
same,KIDNEY_TOTAL,"[…], time 14 day",2.5 g
same,KIDNEY_L,"[…], time 28 day",1.4 g
same,KIDNEY_R,"[…], time 28 day",1.4 g
same,KIDNEY_TOTAL,"[…], time 28 day",2.8 g
same,LIVER,"[…], time 7 day",12.9 g
same,LIVER,"[…], time 14 day",14.1 g
same,LIVER,"[…], time 28 day",16.4 g
same,A/G,"[…], time 7 day",1.4
same,ALP,"[…], time 7 day",1073 IU/L
same,ALT,"[…], time 7 day",38.4 IU/L
same,AST,"[…], time 7 day",72.2 IU/L
same,BUN,"[…], time 7 day",17 mg/dL
same,CRE,"[…], time 7 day",0.5 mg/dL
same,Ca,"[…], time 7 day",11 mg/dL
same,Cl,"[…], time 7 day",101.8 meq/L
same,DBIL,"[…], time 7 day",0.096 mg/dL
same,GLC,"[…], time 7 day",216 mg/dL
same,IP,"[…], time 7 day",7.9 mg/dL
same,K,"[…], time 7 day",4 meq/L
same,LDH,"[…], time 7 day",279.2 IU/L
same,Na,"[…], time 7 day",140.4 meq/L
same,PL,"[…], time 7 day",165.8 mg/dL
same,RALB,"[…], time 7 day",3.3 g/dL
same,TBIL,"[…], time 7 day",0.1 mg/dL
same,TC,"[…], time 7 day",79.4 mg/dL
same,TG,"[…], time 7 day",134.4 mg/dL
same,TP,"[…], time 7 day",5.6 g/dL
same,gamma-GTP,"[…], time 7 day",1.8 IU/L
same,A/G,"[…], time 14 day",1.4
same,ALP,"[…], time 14 day",808 IU/L
same,ALT,"[…], time 14 day",31.2 IU/L
same,AST,"[…], time 14 day",62.2 IU/L
same,BUN,"[…], time 14 day",19 mg/dL
same,CRE,"[…], time 14 day",0.4 mg/dL
same,Ca,"[…], time 14 day",10.7 mg/dL
same,Cl,"[…], time 14 day",101.8 meq/L
same,DBIL,"[…], time 14 day",0.1 mg/dL
same,GLC,"[…], time 14 day",213.4 mg/dL
same,IP,"[…], time 14 day",7.7 mg/dL
same,K,"[…], time 14 day",3.7 meq/L
same,LDH,"[…], time 14 day",186.8 IU/L
same,Na,"[…], time 14 day",141 meq/L
same,PL,"[…], time 14 day",165.6 mg/dL
same,RALB,"[…], time 14 day",3.4 g/dL
same,TBIL,"[…], time 14 day",0.2 mg/dL
same,TC,"[…], time 14 day",85.8 mg/dL
same,TG,"[…], time 14 day",111.2 mg/dL
same,TP,"[…], time 14 day",5.8 g/dL
same,gamma-GTP,"[…], time 14 day",1.8 IU/L
same,A/G,"[…], time 28 day",1.1
same,ALP,"[…], time 28 day",637.6 IU/L
same,ALT,"[…], time 28 day",40 IU/L
same,AST,"[…], time 28 day",66.6 IU/L
same,BUN,"[…], time 28 day",20.4 mg/dL
same,CRE,"[…], time 28 day",0.6 mg/dL
same,Ca,"[…], time 28 day",10.2 mg/dL
same,Cl,"[…], time 28 day",101 meq/L
same,DBIL,"[…], time 28 day",0.1 mg/dL
same,GLC,"[…], time 28 day",284 mg/dL
same,IP,"[…], time 28 day",8.1 mg/dL
same,K,"[…], time 28 day",3.5 meq/L
same,LDH,"[…], time 28 day",178.2 IU/L
same,Na,"[…], time 28 day",140 meq/L
same,PL,"[…], time 28 day",158.2 mg/dL
same,RALB,"[…], time 28 day",3.1 g/dL
same,TBIL,"[…], time 28 day",0.2 mg/dL
same,TC,"[…], time 28 day",77.8 mg/dL
same,TG,"[…], time 28 day",113.6 mg/dL
same,TP,"[…], time 28 day",5.9 g/dL
same,gamma-GTP,"[…], time 28 day",1.4 IU/L
